Data reported in patent publication US12077568B2 (University of Houston System, priority 2018, dated 2024).

Assays:
normal mice = assay: Lowering of blood glucose level in normal mice; assay type: in vivo; conditions: intraperitoneal, 20-24 μg/mouse
Experimental: FIGS. 7A-B. Effect of SPC-insulins on lowering blood glucose level in vivo. The purified yeast-(FIG. 7A) or E. coli-(FIG. 7B) expressed SPC-insulin-P (p-insulin) and SPC-insulin-PP (2p-insulin) (20-24 μg/mouse) was injected (intraperitoneally) into normal mice. The glucose levels of the blood collected from tail vein at the increasing time points were measured using Contour^next One glucose meter (n=6). Humulin R (20-24 μg/mouse) was used as a positive control (n=6, M±SE). The mice were under normal diets.
FIGS. 8A-B. (FIG. 8A) Effect of SPC-insulins on lowering blood glucose level of normal mice using subcutaneous injection. The yeast-expressed SPC-insulin-P (p-insulin) and SPC-insulin-PP (2p-insulin) (20-30 μg/mouse) was injected subcutaneously into the normal mice (n=6). (FIG. 8B) Effects of the purified E. coli-expressed SPC-insulins on lowering blood glucose level of STZ-induced type-1 diabetic mice. 20-30 μg/mouse of the purified E. coli-expressed SPC-P (P-insulin) or SPC-insulin-PP (PP-insulin) was intraperitoneally injected into the STZ-induced Type-1 diabetic mice (with an elevated blood glucose levels of 370-400 mg/dl, n=6). The glucose levels of the blood collected from the mouse tail vein at the increasing time points were measured using Contour^next One glucose meter. Humulin R (20-24 μg/mouse) was used as a positive control (n=6, M±SE). […]

[1] = test system: STZ-induced type-1 diabetic mice; assay: Lowering of blood glucose level in STZ-induced type-1 diabetic mice; assay type: in vivo; conditions: intraperitoneal, 20-30 μg/mouse; for start of working after injection: purified E. coli-expressed
Experimental: FIGS. 8A-B. (FIG. 8A) Effect of SPC-insulins on lowering blood glucose level of normal mice using subcutaneous injection. The yeast-expressed SPC-insulin-P (p-insulin) and SPC-insulin-PP (2p-insulin) (20-30 μg/mouse) was injected subcutaneously into the normal mice (n=6). (FIG. 8B) Effects of the purified E. coli-expressed SPC-insulins on lowering blood glucose level of STZ-induced type-1 diabetic mice. 20-30 μg/mouse of the purified E. coli-expressed SPC-P (P-insulin) or SPC-insulin-PP (PP-insulin) was intraperitoneally injected into the STZ-induced Type-1 diabetic mice (with an elevated blood glucose levels of 370-400 mg/dl, n=6). The glucose levels of the blood collected from the mouse tail vein at the increasing time points were measured using Contour^next One glucose meter. Humulin R (20-24 μg/mouse) was used as a positive control (n=6, M±SE). STZ-Control=oval; Hummulin R=rectangle; SPC-Insulin-P=upward pointing triangle; SPC-Insulin-PP=downward pointing triangle.
The second animal model is the STZ-induced type-1 diabetic mouse. The mice received STZ injection quickly developed into type 1 diabetes because STZ destroyed the insulin-producing cells in pancreas and elevated the glucose level (FIGS. 8A-B, blood glucose level labeled with STZ). The both of the purified SPC-insulin-P and -PP were tested on the diabetic mice. Similar to that of the normal mice, the SPC-insulins started working around 1-1.5 hours after injection, reached to the best therapeutic effects around 4 hours, and then last for 24-48 hours (FIGS. 8A-B).

[2] = commercial insulins; cited from earlier work

Substance | duration of blood glucose lowering effect (normal mice) [h] | duration of effect [1] [h] | time to best therapeutic effect [1] | start of working after injection [1] [h] | duration of action [2] [h]
Humulin R: commercial regular human insulin, two-chain, used as positive control | 4 to 8 | – | – | – | –
SPC-insulin-P: single polypeptide chain human insulin, b-chain C-terminus linked to a-chain N-terminus by one proline residue | – | 24 to 48 | around 4 hours | 1 to 1.5 | –
SPC-insulin-PP: single polypeptide chain human insulin, b-chain linked to a-chain by two proline residues | – | 24 to 48 | around 4 hours | 1 to 1.5 | –
insulin Detemir | – | – | – | – | 18 to 24
insulin Glargine | – | – | – | – | 18 to 24
